Source: the supplement of paper PMC11208160

Experiment: recombinant barcode read abundance after kanamycin selection (control-corrected) (log10(CPM+1)); higher = more efficient recombination; sequences stand for … in AGTGCAGAGAAAATCGGCCAGTTTTCTCTGCCTGCAGTCCGCATGCCGT…ATTTATGCAGCGGACTGCCTTTCTCCCAAAGTGATAAACCGGACAGTATCATGGACCGGTTTTCCCGGTAATCCGTATTTGCAAGGTTGGTTTCACT; site = the 11-nt target
Method in brief: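 In E. coli, a pooled library matched targets to IS621 bridge RNA target-binding loops and was introduced alongside a donor plasmid. Cells went onto chloramphenicol/ampicillin/kanamycin with 0.1 mM IPTG or onto chloramphenicol/ampicillin LB agar as control, in duplicate. Recombination efficiency, from recombinant-junction barcodes as counts per million, is averaged and control-corrected. It is reported as log10(CPM+1).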

Sequence	recombinant barcode read abundance (log10)
GGCTCCCCCTGGGTTCTAACCTGTTGCGGGG [GGCTCCCCTCC_LTGcore_CC_RTGcore_CC] (site GGCTCCCCTCC) (LTG core: CC, RTG core: CC)	0.0622
GGCTCCCCGTGGGTTCTAACCTGTTGCGGAG [GGCTCCCCTCC_LTGcore_CG_RTGcore_CT] (site GGCTCCCCTCC) (LTG core: CG, RTG core: CT)	0.116
GGCTCCCCGTGGGTTCTAACCTGTTGCGGCG [GGCTCCCCTCC_LTGcore_CG_RTGcore_CG] (site GGCTCCCCTCC) (LTG core: CG, RTG core: CG)	0.0989
GGCTCCCCTTGGGTTCTAACCTGTTGCGGAG [GGCTCCCCTCC_LTGcore_CT_RTGcore_CT] (site GGCTCCCCTCC) (LTG core: CT, RTG core: CT)	0.248
GGCTCCCCTTGGGTTCTAACCTGTTGCGGCG [GGCTCCCCTCC_LTGcore_CT_RTGcore_CG] (site GGCTCCCCTCC) (LTG core: CT, RTG core: CG)	0.0875
GGCTCCCCTTGGGTTCTAACCTGTTGCGGGG [GGCTCCCCTCC_LTGcore_CT_RTGcore_CC] (site GGCTCCCCTCC) (LTG core: CT, RTG core: CC)	0.0955
GGCTCCCCTTGGGTTCTAACCTGTTGCGGTT [GGCTCCCCTCC_LTGcore_CT_RTGcore_AA] (site GGCTCCCCTCC) (LTG core: CT, RTG core: AA)	0.285
GGCTCCCGCTGGGTTCTAACCTGTTGCGGGC [GGCTCCCCTCC_LTGcore_GC_RTGcore_GC] (site GGCTCCCCTCC) (LTG core: GC, RTG core: GC)	0.0637
GGCTCCCGTTGGGTTCTAACCTGTTGCGGAG [GGCTCCCCTCC_LTGcore_GT_RTGcore_CT] (site GGCTCCCCTCC) (LTG core: GT, RTG core: CT)	0.546
GGCTCCCTGTGGGTTCTAACCTGTTGCGGCA [GGCTCCCCTCC_LTGcore_TG_RTGcore_TG] (site GGCTCCCCTCC) (LTG core: TG, RTG core: TG)	0.234
GGGAGCCAATGGGTTCTAACCTGTTGCTGTT [GGGAGCCCTCA_LTGcore_AA_RTGcore_AA] (site GGGAGCCCTCA) (LTG core: AA, RTG core: AA)	0.427
GGGAGCCCATGGGTTCTAACCTGTTGCTGAG [GGGAGCCCTCA_LTGcore_CA_RTGcore_CT] (site GGGAGCCCTCA) (LTG core: CA, RTG core: CT)	1.06
GGGAGCCCTTGGGTTCTAACCTGTTGCTGAA [GGGAGCCCTCA_LTGcore_CT_RTGcore_TT] (site GGGAGCCCTCA) (LTG core: CT, RTG core: TT)	0.138
GGGAGCCCTTGGGTTCTAACCTGTTGCTGAT [GGGAGCCCTCA_LTGcore_CT_RTGcore_AT] (site GGGAGCCCTCA) (LTG core: CT, RTG core: AT)	0.599
GGGAGCCCTTGGGTTCTAACCTGTTGCTGCC [GGGAGCCCTCA_LTGcore_CT_RTGcore_GG] (site GGGAGCCCTCA) (LTG core: CT, RTG core: GG)	0.0726
GGGAGCCCTTGGGTTCTAACCTGTTGCTGTT [GGGAGCCCTCA_LTGcore_CT_RTGcore_AA] (site GGGAGCCCTCA) (LTG core: CT, RTG core: AA)	0.272

Sequence	recombinant barcode read abundance (log10)
GGGAGCCGCTGGGTTCTAACCTGTTGCTGAG [GGGAGCCCTCA_LTGcore_GC_RTGcore_CT] (site GGGAGCCCTCA) (LTG core: GC, RTG core: CT)	0.379
GGGAGCCGGTGGGTTCTAACCTGTTGCTGAG [GGGAGCCCTCA_LTGcore_GG_RTGcore_CT] (site GGGAGCCCTCA) (LTG core: GG, RTG core: CT)	0.212
GGGAGCCGGTGGGTTCTAACCTGTTGCTGCC [GGGAGCCCTCA_LTGcore_GG_RTGcore_GG] (site GGGAGCCCTCA) (LTG core: GG, RTG core: GG)	0.0432
GGGCGGAAATGGGTTCTAACCTGTTGCGGTT [GGGCGGACTCC_LTGcore_AA_RTGcore_AA] (site GGGCGGACTCC) (LTG core: AA, RTG core: AA)	0.428
GGGCGGAATTGGGTTCTAACCTGTTGCGGAT [GGGCGGACTCC_LTGcore_AT_RTGcore_AT] (site GGGCGGACTCC) (LTG core: AT, RTG core: AT)	0.0199
GGGCGGACATGGGTTCTAACCTGTTGCGGTG [GGGCGGACTCC_LTGcore_CA_RTGcore_CA] (site GGGCGGACTCC) (LTG core: CA, RTG core: CA)	0.732
GGGCGGACGTGGGTTCTAACCTGTTGCGGCG [GGGCGGACTCC_LTGcore_CG_RTGcore_CG] (site GGGCGGACTCC) (LTG core: CG, RTG core: CG)	0.759
GGGCGGACTTGGGTTCTAACCTGTTGCGGCT [GGGCGGACTCC_LTGcore_CT_RTGcore_AG] (site GGGCGGACTCC) (LTG core: CT, RTG core: AG)	0.292
GGGCGGACTTGGGTTCTAACCTGTTGCGGTG [GGGCGGACTCC_LTGcore_CT_RTGcore_CA] (site GGGCGGACTCC) (LTG core: CT, RTG core: CA)	0.17
GGGCGGAGCTGGGTTCTAACCTGTTGCGGGC [GGGCGGACTCC_LTGcore_GC_RTGcore_GC] (site GGGCGGACTCC) (LTG core: GC, RTG core: GC)	0.417
GGGCGGAGTTGGGTTCTAACCTGTTGCGGAC [GGGCGGACTCC_LTGcore_GT_RTGcore_GT] (site GGGCGGACTCC) (LTG core: GT, RTG core: GT)	0.199
GGGCGGATGTGGGTTCTAACCTGTTGCGGAG [GGGCGGACTCC_LTGcore_TG_RTGcore_CT] (site GGGCGGACTCC) (LTG core: TG, RTG core: CT)	0.251
GGGCGTGAATGGGTTCTAACCTGTTGCCTTT [GGGCGTGCTAG_LTGcore_AA_RTGcore_AA] (site GGGCGTGCTAG) (LTG core: AA, RTG core: AA)	0.148
GGGCGTGCATGGGTTCTAACCTGTTGCCTTG [GGGCGTGCTAG_LTGcore_CA_RTGcore_CA] (site GGGCGTGCTAG) (LTG core: CA, RTG core: CA)	0.0757
GGGCGTGCTTGGGTTCTAACCTGTTGCCTCT [GGGCGTGCTAG_LTGcore_CT_RTGcore_AG] (site GGGCGTGCTAG) (LTG core: CT, RTG core: AG)	0.831
GGGCGTGGGTGGGTTCTAACCTGTTGCCTCC [GGGCGTGCTAG_LTGcore_GG_RTGcore_GG] (site GGGCGTGCTAG) (LTG core: GG, RTG core: GG)	0.116
